Laboratory results taken from ChEMBL document CHEMBL4138259, “Discovery of JTZ-951: A HIF Prolyl Hydroxylase Inhibitor for the Treatment of Renal Anemia” (ACS Med Chem Lett, 2017).
The source made the active and inactive calls. No cut-off for these calls is given here.

Legend:
[1] = in vitro; conditions: human, Caco-2
[2] = system: Mus musculus; test: Upregulation of plasma EPO level in Balb/c mouse at 10 mg/kg, po administered as single dose measured after 8 hrs by ELISA; format: functional
[3] = system: Rattus norvegicus; test: Antianemic activity in CD(SD) rat assessed as increase in hemoglobin levels at 3 mg/kg, po administered once daily for 28 days; format: functional, organism-based
[4] = system: Rattus norvegicus; test: Antianemic activity in CD(SD) rat assessed as increase in hemoglobin levels at 10 mg/kg, po administered once daily for 28 days; format: functional, organism-based
[5] = system: Rattus norvegicus; test: Upregulation of plasma EPO level in CD(SD) rat at 10 mg/kg, po administered as single dose measured after 8 hrs by RIA; format: functional
[6] = system: Rattus norvegicus; test: Toxicity in CD(SD) rat assessed as induction of anorexia at 100 mg/kg, po administered as single dose; format: organism-based; conditions: in vivo

Structure (SMILES)	Papp A→B at 2 h, 25 µM [1] [×10⁻⁶ cm/s]	Activity [2] [pg/mL]	Activity [3]	Activity [4]	Activity [5] [pg/mL]	Activity [6]
Cl.O=C(O)CNC(=O)c1c(O)cc(CCc2ccccc2)c2ncnn12	9.3	<320	–	–	–	–
CCCc1cc(O)c(C(=O)NCC(=O)O)c2ncnn12.Cl	2.1	<300	–	–	–	–
CCCCc1cc(O)c(C(=O)NCC(=O)O)c2ncnn12.Cl	9.9	3700	inactive	Active	2200	Non-Toxic
Cl.O=C(O)CNC(=O)c1c(O)ccc2ncnn12	0.4	–	–	–	–	–
O=C(O)CNC(=O)c1c(O)ccn2ccnc12	0.8	–	–	–	–	–
CCc1c(O)c(C(=O)NCC(=O)O)c2ncnn2c1CC.Cl	9.3	1100	–	–	–	–
CCCCCc1cc(O)c(C(=O)NCC(=O)O)c2ncnn12.Cl	20	2300	–	–	11000	Toxic
O=C(O)CNC(=O)c1nc(Cl)c2ccccc2c1O	63	–	–	–	–	–
Cl.O=C(O)CNC(=O)c1c(O)ccn2cnnc12	< 0.4	–	–	–	–	–
O=C(O)CNC(=O)c1c(O)cc(-c2cccc(Cl)c2)n2ncnc12	6.1	>15000	–	–	7900	Toxic
